From ChEMBL document CHEMBL1155538 (Bioorg Med Chem Lett, 2010)

What was measured:
[1] = Half life in human liver microsomes; type: ADME, Microsome
[2] = Inhibition of tetrodotoxin-sensitive sodium channel
[3] = molecular target: Voltage-gated inwardly rectifying potassium channel KCNH2 (Homo sapiens, UniProt Q12809); experiment: Displacement of [3H]dofetilide from human ERG
[4] = molecular target: Sodium-dependent serotonin transporter (Homo sapiens, UniProt P31645); experiment: biochemical
[5] = molecular target: Sodium-dependent noradrenaline transporter (Homo sapiens, UniProt P23975); experiment: biochemical
Sodium-dependent noradrenaline transporter, sequence (P23975 whole entry): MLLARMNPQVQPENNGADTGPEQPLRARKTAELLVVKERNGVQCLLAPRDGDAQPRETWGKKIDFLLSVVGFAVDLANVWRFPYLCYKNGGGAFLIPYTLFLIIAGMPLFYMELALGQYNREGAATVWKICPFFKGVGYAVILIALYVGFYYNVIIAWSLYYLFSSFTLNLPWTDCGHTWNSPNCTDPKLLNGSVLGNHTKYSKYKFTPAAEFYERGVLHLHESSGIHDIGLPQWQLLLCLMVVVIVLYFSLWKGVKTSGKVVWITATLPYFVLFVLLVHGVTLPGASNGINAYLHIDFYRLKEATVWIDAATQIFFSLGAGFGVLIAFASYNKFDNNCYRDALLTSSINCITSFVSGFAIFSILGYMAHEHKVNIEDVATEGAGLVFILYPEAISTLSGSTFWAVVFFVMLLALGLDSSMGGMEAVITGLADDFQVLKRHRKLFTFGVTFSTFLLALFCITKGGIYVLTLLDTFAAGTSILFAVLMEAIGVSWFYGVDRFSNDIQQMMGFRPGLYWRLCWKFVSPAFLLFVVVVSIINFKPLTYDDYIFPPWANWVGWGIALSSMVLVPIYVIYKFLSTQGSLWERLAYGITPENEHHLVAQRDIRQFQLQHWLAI

[6] = molecular target: Sodium-dependent dopamine transporter (Homo sapiens, UniProt Q01959); experiment: biochemical
Sodium-dependent dopamine transporter, sequence (Q01959 whole entry): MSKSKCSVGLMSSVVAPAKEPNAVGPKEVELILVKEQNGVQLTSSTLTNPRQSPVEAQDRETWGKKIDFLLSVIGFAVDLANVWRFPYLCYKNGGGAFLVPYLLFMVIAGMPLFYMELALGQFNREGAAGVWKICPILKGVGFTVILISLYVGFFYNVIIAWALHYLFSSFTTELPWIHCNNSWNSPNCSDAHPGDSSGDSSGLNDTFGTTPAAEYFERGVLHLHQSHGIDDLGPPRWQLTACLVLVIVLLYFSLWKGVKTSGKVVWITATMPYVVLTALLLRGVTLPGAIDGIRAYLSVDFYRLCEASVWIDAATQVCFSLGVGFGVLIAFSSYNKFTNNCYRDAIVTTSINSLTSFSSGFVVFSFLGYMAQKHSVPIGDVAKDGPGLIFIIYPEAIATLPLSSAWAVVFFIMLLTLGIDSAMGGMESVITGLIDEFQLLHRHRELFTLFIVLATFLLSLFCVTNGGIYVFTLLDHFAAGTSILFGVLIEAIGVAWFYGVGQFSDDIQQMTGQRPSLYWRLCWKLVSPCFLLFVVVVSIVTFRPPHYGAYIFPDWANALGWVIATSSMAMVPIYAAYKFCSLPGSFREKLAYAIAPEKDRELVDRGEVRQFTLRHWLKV

Voltage-gated inwardly rectifying potassium channel KCNH2, sequence (Q12809 whole entry): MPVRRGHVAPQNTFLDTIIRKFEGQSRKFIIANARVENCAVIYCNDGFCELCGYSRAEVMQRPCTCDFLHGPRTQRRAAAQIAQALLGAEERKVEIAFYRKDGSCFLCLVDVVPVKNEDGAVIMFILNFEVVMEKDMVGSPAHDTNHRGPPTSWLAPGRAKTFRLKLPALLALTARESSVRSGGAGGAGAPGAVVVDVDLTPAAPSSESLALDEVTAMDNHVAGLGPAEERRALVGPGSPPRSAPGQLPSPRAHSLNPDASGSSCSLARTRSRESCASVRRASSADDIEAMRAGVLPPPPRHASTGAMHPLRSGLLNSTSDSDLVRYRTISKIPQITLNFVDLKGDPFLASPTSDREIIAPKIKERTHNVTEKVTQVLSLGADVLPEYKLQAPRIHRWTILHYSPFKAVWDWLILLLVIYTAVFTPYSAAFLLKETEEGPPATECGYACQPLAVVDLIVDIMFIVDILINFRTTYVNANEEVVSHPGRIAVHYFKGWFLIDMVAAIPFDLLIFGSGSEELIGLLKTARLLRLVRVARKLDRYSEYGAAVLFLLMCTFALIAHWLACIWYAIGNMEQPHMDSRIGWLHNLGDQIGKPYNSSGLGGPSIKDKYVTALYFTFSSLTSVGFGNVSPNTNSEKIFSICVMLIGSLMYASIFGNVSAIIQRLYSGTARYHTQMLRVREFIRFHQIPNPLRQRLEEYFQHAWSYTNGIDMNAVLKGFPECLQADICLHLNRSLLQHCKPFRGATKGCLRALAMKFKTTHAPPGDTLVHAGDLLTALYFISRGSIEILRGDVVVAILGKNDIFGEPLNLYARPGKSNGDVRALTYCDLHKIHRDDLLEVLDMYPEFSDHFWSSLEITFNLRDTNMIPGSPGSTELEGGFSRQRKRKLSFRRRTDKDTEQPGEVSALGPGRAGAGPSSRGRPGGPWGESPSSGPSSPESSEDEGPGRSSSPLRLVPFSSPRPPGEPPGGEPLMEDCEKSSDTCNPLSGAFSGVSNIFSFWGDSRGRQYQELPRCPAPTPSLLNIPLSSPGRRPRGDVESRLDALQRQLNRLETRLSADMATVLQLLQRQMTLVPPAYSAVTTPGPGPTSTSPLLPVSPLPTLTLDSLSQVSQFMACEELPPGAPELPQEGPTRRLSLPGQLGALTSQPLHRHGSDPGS
Sodium-dependent serotonin transporter, sequence (P31645 whole entry): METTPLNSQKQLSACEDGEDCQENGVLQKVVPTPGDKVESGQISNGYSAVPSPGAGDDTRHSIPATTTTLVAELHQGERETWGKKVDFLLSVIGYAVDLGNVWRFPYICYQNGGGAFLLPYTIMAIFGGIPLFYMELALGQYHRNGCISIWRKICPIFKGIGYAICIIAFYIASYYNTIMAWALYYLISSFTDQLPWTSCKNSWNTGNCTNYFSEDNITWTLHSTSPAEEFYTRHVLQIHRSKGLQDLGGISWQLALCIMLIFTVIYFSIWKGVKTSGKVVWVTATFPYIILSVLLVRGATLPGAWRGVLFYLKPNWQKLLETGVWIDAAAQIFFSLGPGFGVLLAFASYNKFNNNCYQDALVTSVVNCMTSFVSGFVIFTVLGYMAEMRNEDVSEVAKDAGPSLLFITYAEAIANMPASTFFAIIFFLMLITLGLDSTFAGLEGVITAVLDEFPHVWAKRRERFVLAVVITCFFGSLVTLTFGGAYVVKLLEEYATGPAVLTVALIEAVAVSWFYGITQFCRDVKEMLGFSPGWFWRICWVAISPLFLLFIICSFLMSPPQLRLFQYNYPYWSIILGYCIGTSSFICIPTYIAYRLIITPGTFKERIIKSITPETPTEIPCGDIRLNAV

SMILES	half-life [1] [h]	IC50 [2] [µM]	IC50 [3] [µM]	Ki [4] [µM]	Ki [5] [µM]	Ki [6] [µM]
CC(C)CN(C(=O)c1cccc(Cl)c1Cl)[C@H]1CCNC1	> 2	8.55	–	–	–	–
c1ccc(C(Cc2cccc3c2OCC3)N2CCNCC2)cc1 (stereo unspecified)	–	–	21.4	0.008	0.34	> 3.16
